9 compounds from publication PMC4137035 (Bioorganic & medicinal chemistry letters, 2014) can be followed below.

For one data set, the system named is wild-type HIV-1 (IIIB). The format is cell-based. The conditions noted are these: selective index, CC50 vs EC50 IIIB.
Data set [1] is described as follows: Aqueous solubility measured by HPLC. The format is physicochemical.
Setting [2] is: aqueous medium at pH 7.4 (buffer not named), pH 7.4.

Converted amounts (≈) assume the structure as drawn.

With `Cc1cc(C#N)cc(C)c1Oc1cc(Nc2ccc(C#N)cc2)c(N)cc1CNCCCO` [7d], in the data set on wild-type HIV-1 (IIIB), the SI is reported as 2,475. What is called solubility is the dissolved amount per volume that the medium holds. Compound `COCc1cc(N)c(Nc2ccc(C#N)cc2)cc1Oc1c(C)cc(/C=C/C#N)cc1C` [11a] returned a solubility in data set [1] (setting [2]) below 1 µg/mL. In addition, in the data set on wild-type HIV-1 (IIIB), the SI is listed as 8,763.

Compound `Cc1cc(C#N)cc(C)c1Oc1cc(Nc2ccc(C#N)cc2)c(N)cc1CNC1CC1` [7c] showed a solubility in data set [1] (aqueous medium at pH 2.0 (buffer not named), pH 2) of 285 µg/mL (≈ 673 µM). Besides, the SI with wild-type HIV-1 (IIIB) is given as 1,142. As to `COCc1cc(N)c(Nc2ccc(C#N)cc2)cc1Oc1c(C)cc(CCC#N)cc1C` [12a], the solubility in data set [1] (setting [2]) was below 1 µg/mL. The SI with wild-type HIV-1 (IIIB) is on record as >61,538. In the same order, the values of `CC(=O)OCc1cc(N)c(Nc2ccc(C#N)cc2)cc1Oc1c(C)cc(/C=C/C#N)cc1C` [11b] are below 1 µg/mL and 117,439. In turn, `COCc1cc(N)c(Nc2ccc(C#N)cc2)cc1Oc1c(C)cc(C#N)cc1C` [7g] returned a solubility in data set [1] (setting [2]) below 1 µg/mL. Still for that read-out and setting: for `CC(=O)OCc1cc(N)c(Nc2ccc(C#N)cc2)cc1Oc1c(C)cc(C#N)cc1C` [7h] the value was below 1 µg/mL. In data set [1] (setting [2]), `CC(=O)OCc1cc(N)c(Nc2ccc(C#N)cc2)cc1Oc1c(C)cc(CCC#N)cc1C` [12b] registered a solubility below 1 µg/mL. The SI in the data set on wild-type HIV-1 (IIIB) was 46,667.

In data set [1] (setting [2]), `Cc1cc(C#N)cc(C)c1Oc1cc(Nc2ccc(C#N)cc2)c(N)cc1CO` [7a] displayed a solubility below 1 µg/mL. Also, the SI with wild-type HIV-1 (IIIB) was 114,019.
